Experimental data as given in PubChem BioAssay (NCI).
Where “and” joins values, the source holds several entries; their conditions need not be identical. Equal entries are not always repeated.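 Method: 48-hour compound exposure of cells in 96-well plates, five concentrations, linear interpolation of endpoints. Abbreviation: GI50, concentration required for 50% inhibition of growth. TGI denotes the concentration required for complete inhibition of growth.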

How the values were obtained:
Assay in all cases: growth of human tumour cells (NCI), 48 h
MALME-3M melanoma = system: MALME-3M melanoma
SK-MEL-5 melanoma = system: SK-MEL-5 melanoma
NCI-H23 lung = system: NCI-H23 lung
HT29 colon = system: HT29 colon
SN12C renal = system: SN12C renal
NCI-H226 lung = system: NCI-H226 lung
HL-60(TB) leukemia = system: HL-60(TB) leukemia
MOLT-4 leukemia = system: MOLT-4 leukemia
SK-MEL-28 melanoma = system: SK-MEL-28 melanoma
HCT-116 colon = system: HCT-116 colon

| SMILES | GI50 (MALME-3M melanoma) | TGI (MALME-3M melanoma) | GI50 (SK-MEL-5 melanoma) | TGI (SK-MEL-5 melanoma) | GI50 (NCI-H23 lung) | TGI (NCI-H23 lung) | GI50 (HT29 colon) | TGI (HT29 colon) | GI50 (SN12C renal) | TGI (SN12C renal) | GI50 (NCI-H226 lung) | TGI (NCI-H226 lung) | GI50 (HL-60(TB) leukemia) | TGI (HL-60(TB) leukemia) | GI50 (MOLT-4 leukemia) | TGI (MOLT-4 leukemia) | GI50 (SK-MEL-28 melanoma) | TGI (SK-MEL-28 melanoma) | GI50 (HCT-116 colon) | TGI (HCT-116 colon) |
| --- | --- | --- | --- | --- | --- | --- | --- | --- | --- | --- | --- | --- | --- | --- | --- | --- | --- | --- | --- | --- |
| N/C(=N\O)c1ncc(-c2ccc(C(F)(F)F)cc2)c(NC2CCCCCC2)n1 | 3.81 µM | 13.9 µM | 4.66 µM and 3.44 µM | 15.5 µM | 3.76 µM | 16.3 µM | 3.24 µM | 10.4 µM | 5.79 µM and 3.05 µM | 14.5 µM | 4.24 µM | 26.8 µM | 2.06 µM | 5.52 µM | 5.44 µM and 1.9 µM | 5.78 µM | 5.38 µM | 19 µM | 3.95 µM and 1.41 µM | 11.9 µM |
| CCOc1ccc(Cc2nccc3cc(OCC)c(OCC)cc23)cc1OCC | 8.76 µM | 26 µM | 1.61 µM | 4.19 µM | 1.93 µM | 21.6 µM | 0.863 µM | 12.6 µM | 4.08 µM | 22.3 µM | 6 µM | 23.8 µM | 3.17 µM | 18.2 µM | 5.83 µM | 34.2 µM | 14.8 µM | 28.9 µM | 1.52 µM | 13.4 µM |
| CCCNc1nc(N(C)O)nc(N(C)O)n1 | 2.96 µM | 32.5 µM | 1.6 µM | 6.61 µM | 4.73 µM | > 100 µM | 4.53 µM | > 100 µM | 4.27 µM | > 100 µM | 6.49 µM | > 93.6 µM | 0.59 µM | 4.56 µM | 0.194 µM | > 28 µM | 2.64 µM | > 91 µM | 1.63 µM | > 53.8 µM |
| O=C(CCCn1c2c(sc3ncccc32)c(=O)n2nnc(-c3ccccc3)c12)NCCc1cnc[nH]1 | 18.1 µM | 37 µM | 16.1 µM | > 100 µM | 14.5 µM | 32.2 µM | 3.89 µM | 54.9 µM | 0.331 µM | 13.4 µM | 11.7 µM | 29.3 µM | 1.41 µM | 4.76 µM | 2.22 µM | 24.2 µM | 17 µM | 35 µM | 0.378 µM | 10.1 µM |
| COC(=O)CCC(NC(=S)N/N=C(\C)c1ccccn1)C(=O)OC (stereo not drawn) |  | > 100 µM |  | > 100 µM |  | > 100 µM |  | > 100 µM |  | > 100 µM |  | > 100 µM |  | 53.1 µM |  | > 100 µM |  | > 100 µM |  | > 100 µM |
| Cc1ccc(/C=C(\C#N)n2nnc3cc(Cl)c(Cl)cc32)cc1 | 2.18 µM | 6.21 µM | 2.44 µM | 6.55 µM | 3.36 µM | > 100 µM | 2.59 µM | 13.6 µM | 3.13 µM | 13.1 µM | 2.88 µM | > 100 µM | 1.78 µM | 6.94 µM | 2.73 µM | > 100 µM | 2.05 µM | 4.77 µM | 1.54 µM | 3 µM |
| Nc1nnc2nc(CC(=O)/C=C/c3ccccc3)c(=O)[nH]n12 |  | > 100 µM |  | > 100 µM |  | > 100 µM |  | > 100 µM |  | > 100 µM |  | > 100 µM |  | > 100 µM |  | > 100 µM |  | > 100 µM |  | > 100 µM |
| O=C(c1cc(=O)c2ccc(O)cc2o1)c1ccc(Cl)cc1Cl |  | > 94.7 µM |  | > 74.6 µM |  | > 73.3 µM |  | > 100 µM |  | 72.1 µM |  | 99.6 µM |  | > 100 µM |  | 22.3 µM |  | > 100 µM |  | > 54.1 µM |
| COc1cc2cc3c4c(cc(OC)c(OC)c4c2cc1OC)CCN3C(=O)CCCC(=O)O |  | > 100 µM |  | > 100 µM |  | > 100 µM |  | > 100 µM |  | > 100 µM |  | > 100 µM |  | > 100 µM |  | > 100 µM |  | > 100 µM |  | > 100 µM |
| O=C1NC(=NCc2cccs2)SC1Cc1ccc2ncccc2c1 (stereo not drawn) | 24.7 µM | > 25 µM | 17.4 µM | > 25 µM | > 25 µM | > 25 µM | 11.7 µM | > 25 µM | > 23.6 µM | > 25 µM | > 25 µM | > 25 µM | 11.8 µM | > 25 µM | 14.5 µM | > 25 µM | > 19.9 µM | > 25 µM | 10.7 µM | > 25 µM |
| CCC(=O)C1=C(OC(C)=O)C2Cc3c(n(C)c4ccccc34)C(C1)N2C (stereo not drawn) |  | > 100 µM |  | 97.9 µM |  | > 100 µM |  | > 100 µM |  | 61.5 µM |  | > 100 µM |  | 53 µM |  | > 100 µM |  | > 100 µM |  | 85.1 µM |
| CC1C2Cc3ccc(O)cc3C1(C)CCN2C (stereo not drawn) |  | > 100 µM |  | > 100 µM |  | > 100 µM |  | > 100 µM |  | > 100 µM |  | > 100 µM |  | > 100 µM |  | > 100 µM |  | > 100 µM |  | > 100 µM |
| Oc1nc(NCCc2ccccc2)sc1/C=C1\C=Nc2ncccc21 | 3.28 µM | 8.93 µM | 2.45 µM and 2.83 µM | 6.67 µM and 7.88 µM | 1.62 µM and 2.4 µM | 5.72 µM and 8.12 µM | 2.8 µM and 4 µM | 11.4 µM and 26.7 µM | 2.63 µM and 3.92 µM | 12.9 µM and 74.1 µM | 2.99 µM and 3.27 µM | 14.3 µM and 16.1 µM | 2.34 µM and 2.14 µM | 6.48 µM and 6.88 µM | 3.17 µM and 2.77 µM | 11.6 µM and 11 µM | 2.83 µM and 2.52 µM | 13.6 µM and 7.58 µM | 1.03 µM and 1.23 µM | 11.1 µM and 6.5 µM |
| Nc1nc(N)c2cc(CNc3ccc(Cl)c(Cl)c3)ccc2n1 | 1.21 µM | 2.77 µM | 0.519 µM | 1.82 µM | 0.71 µM | 2.11 µM | 0.287 µM | 1.65 µM | 0.732 µM | 2.12 µM | 1.58 µM | 3.21 µM | 0.357 µM | 2 µM | 0.485 µM | 2.02 µM | 1.51 µM | 2.84 µM | 0.0839 µM | 1.31 µM |
| O=C(Oc1cccnc1)c1ccccc1Nc1ccnc(C(F)(F)F)c1 | 33.1 µM | > 100 µM | 0.203 µM | 2.35 µM | 0.049 µM | 1.83 µM | 0.0487 µM |  | 0.17 µM | > 94.8 µM | 0.552 µM | 29.3 µM | 43.3 µM | > 100 µM | 0.0499 µM | > 100 µM | 0.483 µM | > 60.1 µM | 0.0342 µM |  |
| CCCCCCN(CCCCCC)CCCNc1nccc2ccccc12 | 1.94 µM | 3.91 µM | 1.7 µM | 3.13 µM | 1.8 µM | 3.83 µM | 0.513 µM | 1.95 µM | 2.27 µM | 7.36 µM | 1.61 µM | 3.5 µM | 1.77 µM | 4.26 µM | 2.56 µM | 7.71 µM | 1.64 µM | 3.17 µM | 0.832 µM | 2.2 µM |
| C/C(CN1C(=O)c2ccccc2C1=O)=N\NS(=O)(=O)c1ccccc1 |  | > 100 µM |  | > 100 µM |  | > 100 µM |  | > 100 µM |  | > 100 µM |  | > 100 µM |  | > 100 µM |  | > 100 µM |  | > 100 µM |  | > 100 µM |
| CC(C)(O)[C@@H]1CCC(C)([C@H]2[C@@H](O)CC3(C)C4CC(OC5OC(CO)C(O)C(O)C5O)C5C(C)(C)[C@@H](OC6OCC(O)C(O)C6O)CC[C@@]56C[C@@]46CC[C@]23C)O1 (stereo partly drawn) |  | > 100 µM |  | > 100 µM |  | > 100 µM |  | > 100 µM |  | > 100 µM |  | > 100 µM |  | > 100 µM |  | > 100 µM |  | > 100 µM |  | > 100 µM |
| CCOc1ccccc1NC(=O)C(=O)CC(=O)C1=C(C)Nc2ccccc2S1 |  | > 100 µM |  | > 100 µM |  | > 100 µM |  | > 100 µM |  | > 100 µM |  | > 100 µM |  | > 36.2 µM |  | > 69.5 µM |  | > 100 µM |  | > 100 µM |
